Source: patent EP1228058B1, “BENZOPYRANYL GUANIDINE DERIVATIVES, PROCESS FOR PREPARATION THEREOF, AND PHARMACEUTICAL COMPOSITIONS CONTAINING THEM” (Dongbu Hannong Chemical Co., Ltd., priority 1999, dated 2001)

assay: Acute oral toxicity test in rats; settings: rat, in vivo, single oral dose in 0.5% methyl cellulose, read-out: lethal dose (LD50) for oral administration
Method: In this test six-week old SPF SD rats were used with two rats assigned to each group. The compounds of examples 1, 2, 3, 5, 7, 8, 9, 10, 13, 14, 15, 19, 22, 23, 24, 25, 26, 28, 29, 30, 31, 32, 33, 34, 35, 36, 37, 38, 39, 40, 41, 44, 46, 47, 48, 49, 51, 52, 57, 58, 60, 62, 64, 67, 68, 69, 71 and 72 were suspended in 0.5% methyl cellulose, respectively, and administered orally at a single dose of 1 g/kg using a ball-tipped needle. The dosing volume was 10 ml/kg. […] All survivors at the end of the observation period underwent laparotomy under ether anesthesia and the blood samples were taken from the abdominal aorta for hematological tests and biochemical analysis. After sacrificing the animals, autopsy was performed for macroscopic observation of the organs and tissues. Tissue samples of vital organs from macroscopic legion were removed and fixed in 10% neutral buffered formalin solution, then processed by standard procedures for histopathology and examined under light microscope. There were no significant changes in clinical symptoms, body weight and mortalities. Also in hematology, serum chemistry parameters and macroscopic observation, no drug-related changes were observed.

**Q.** For `COc1ccc(NC(=NC#N)N[C@@H]2c3cc([N+](=O)[O-])ccc3O[C@@](C)(C(OC)OC)[C@H]2O)cc1` [Example 9, (2R, 3S, 4R)-N''-cyano-N-(6-nitro-3,4-dihydro-3-hydroxy-2-methyl-2-dimethoxymethyl-2H-benzopyran-4-yl)-N'-(4-methoxyphenyl) guanidine], which LD50 is on record?
**A.** > 1000 mg/kg

**Q.** Which LD50 does the source give for `COC(OC)[C@]1(C)Oc2ccc([N+](=O)[O-])cc2[C@H](NC(=NC#N)Nc2cccc(Cl)c2)[C@H]1O` [Example 3, (2R, 3R, 4S)-N''-cyano-N-(6-nitro-3,4-dihydro-3-hydroxy-2-methyl-2-dimethoxymethyl-2H-benzopyran-4-yl)-N'-(3-chlorophenyl)guanidine] here?
**A.** > 1000 mg/kg

**Q.** For `COC(OC)[C@]1(C)Oc2ccccc2[C@H](NC(=NC#N)Nc2ccc(Cl)cc2)[C@H]1O` [Example 26, (2R, 3R, 4S)-N''-cyano-N-(3,4-dihydro-3-hydroxy-2-methyl-2-dimethoxymethyl-2H-benzopyran-4-yl)-N'-(4-chlorophenyl)guanidine], which LD50 is on record?
**A.** > 1000 mg/kg

**Q.** Which LD50 does the source give for `COC(OC)[C@@]1(C)Oc2ccc([N+](=O)[O-])cc2[C@H](NC(=NC#N)NCc2ccccc2Cl)[C@H]1O` [Example 36, (2S, 3R, 4S)-N''-cyano-N-(6 - nitro-3,4-dihydro-3-hydroxy-2-methyl-2-dimethoxymethyl-2H-benzopyran-4-yl)-N'-(2-chlorobenzyl)guanidine] here?
**A.** > 1000 mg/kg

**Q.** With `COC(OC)[C@]1(C)Oc2ccc(N)cc2[C@H](NC(=NC#N)NCc2ccccc2)[C@H]1O` [Example 58, (2R, 3R, 4S)-N''-cyano-N-(6-amino-3,4-dihydro-3-hydroxy-2-methyl-2-dimethoxymethyl-2H-benzopyran-4-yl)-N'-benzylguanidine] as the molecule, how does the LD50 read?
**A.** > 1000 mg/kg

**Q.** With `COC[C@@]1(C)Oc2ccc([N+](=O)[O-])cc2[C@H](NC(=NC#N)Nc2ccc(Cl)cc2)[C@H]1O` [Example 30, (2R, 3R, 4S)-N''-cyano-N-(6-nitro-3,4-dihydro-3-hydroxy-2-methyl-2-methoxymethyl-2H-benzopyran-4-yl)-N'-(4-chlorophenyl)guanidine] as the molecule, how does the LD50 read?
**A.** > 1000 mg/kg

**Q.** Which LD50 does the source give for `COC(OC)[C@@]1(C)Oc2ccc([N+](=O)[O-])cc2[C@H](NC(=NC#N)Nc2ccccc2C(F)(F)F)[C@H]1O` [Example 34, (2S, 3R, 4S)-N''-cyano-N-(6-nitro-3,4-dihydro-3-hydroxy-2-methyl-2-dimethoxymethyl-2H-benzopyran-4-yl)-N'-(2-trifluoromethylphenyl)guanidine] here?
**A.** > 1000 mg/kg

**Q.** For `COC(OC)[C@@]1(C)Oc2ccc([N+](=O)[O-])cc2[C@@H](NC(=NC#N)NCc2ccccc2Cl)[C@@H]1O` [Example 37, (2S, 3S, 4R)-N''-cyano-N-(6-nitro-3,4-dihydro-3-hydroxy-2-methyl-2-dimethoxymethyl-2H-benzopyran-4-yl)-N'-(2-chlorobenzyl)guanidine], which LD50 is on record?
**A.** > 1000 mg/kg

**Q.** Which LD50 does the source give for `COC(OC)[C@@]1(C)Oc2ccc(C#N)cc2[C@H](NC(=NC#N)Nc2ccc(Cl)cc2)[C@H]1O` [Example 44, (2S, 3R, 4S)-N''-cyano-N-(6-cyano-3,4-dihydro-3-hydroxy-2-methyl-2-dimethoxymethyl-2H-benzopyran-4-yl)-N'-(4-chlorophenyl)guanidine] here?
**A.** > 1000 mg/kg

**Q.** Which LD50 does the source give for `COC(OC)[C@@]1(C)Oc2ccc(N)cc2[C@H](/N=C(\NC#N)NCc2ccccc2)[C@H]1O` [Example 57, (2S, 3R, 4S)-N''-cyano-N-(6-amino-3,4-dihydro-3-hydroxy-2-methyl-2-dimethoxymethyl-2H-benzopyran-4-yl)-N'-benzylguanidine] here?
**A.** > 1000 mg/kg

**Q.** With `COC(OC)[C@@]1(C)Oc2ccc([N+](=O)[O-])cc2[C@H](NC(=NC#N)Nc2cccc(C(F)(F)F)c2)[C@H]1O` [Example 14, (2S, 3R, 4S)-N''-cyano-N-(6-nitro-3,4-dihydro-3-hydroxy-2-methyl-2-dimethoxymethyl-2H-benzopyran-4-yl)-N'-(3-trifluoromethylphenyl)guanidine] as the molecule, how does the LD50 read?
**A.** > 1000 mg/kg
